Reference: PubChem BioAssay AID2060605 (Molecular Pharmacology Branch, DTP, NCI, 2025)

Tested on: 947758-054-R-J2-PDC spheroid growth, percent test/control
Experiment: Anticancer human tumor 947758-054-R-J2-PDC patient-derived colon adenocarcinoma cell line growth inhibition [CLK]
Details: spheroids with HUVEC and MSC; for IC50: curve of first compound; for viability, T/C: stronger effect = lower value; active = viability on the fitted dose curve at most 10% of control; inactive = the rest
In short: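 Patient-derived tumor cells grown as complex spheroids with HUVEC endothelial cells and mesenchymal stem cells, treated with drug combinations. Concentrations descend in half-log steps from near clinical Cmax, or from 10 microM if Cmax unknown.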
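Also: spheroids exposed to compounds for one week before readout.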
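For viability, T/C in this document: 100% = DMSO vehicle control wells.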

C#Cc1c(F)ccc2cc(O)cc(-c3ncc4c(N5CC6CCC(C5)N6)nc(OCC56CCCN5CC(F)C6)nc4c3F)c12 (centres undefined) + CN1CCN(c2cc(C(=O)Nc3cc4cc(-c5cnn(C)c5)ccc4cn3)ccn2)CC1
inactive: viability, T/C (second compound 0.0316 µM, first compound 0.0316 µM) 103% | viability, T/C (second compound 0.0316 µM, first compound 0.1 µM) 123% | viability, T/C (second compound 0.0316 µM, first compound 0.316 µM) 126% | viability, T/C (second compound 0.0316 µM, first compound 1 µM) 73.3% | viability, T/C (second compound 0.0316 µM, first compound 3.16 µM) 107% | viability, T/C (second compound 0.0316 µM, first compound 10 µM) 118% | viability, T/C (second compound 0.1 µM, first compound 0.0316 µM) 145% | viability, T/C (second compound 0.1 µM, first compound 0.1 µM) 214% | viability, T/C (second compound 0.1 µM, first compound 0.316 µM) 187% | viability, T/C (second compound 0.1 µM, first compound 1 µM) 214% | viability, T/C (second compound 0.1 µM, first compound 3.16 µM) 216% | viability, T/C (second compound 0.1 µM, first compound 10 µM) 148%
active: viability, T/C (second compound 0.316 µM, first compound 0.0316 µM) 5.41% | viability, T/C (second compound 0.316 µM, first compound 0.1 µM) 7.64% | viability, T/C (second compound 0.316 µM, first compound 0.316 µM) 7.09% | viability, T/C (second compound 0.316 µM, first compound 1 µM) 6.71% | viability, T/C (second compound 0.316 µM, first compound 3.16 µM) 6% | viability, T/C (second compound 0.316 µM, first compound 10 µM) 5.97% | viability, T/C (second compound 1 µM, first compound 0.0316 µM) 0.17% | viability, T/C (second compound 1 µM, first compound 0.1 µM) 0.21% | viability, T/C (second compound 1 µM, first compound 0.316 µM) 0.18% | viability, T/C (second compound 1 µM, first compound 1 µM) 0.22% | viability, T/C (second compound 1 µM, first compound 3.16 µM) 0.19% | viability, T/C (second compound 1 µM, first compound 10 µM) 0.21% | viability, T/C (second compound 3.16 µM, first compound 0.0316 µM) 0.19% | viability, T/C (second compound 3.16 µM, first compound 0.1 µM) 0.24% | viability, T/C (second compound 3.16 µM, first compound 0.316 µM) 0.24% | viability, T/C (second compound 3.16 µM, first compound 1 µM) 0.2% | viability, T/C (second compound 3.16 µM, first compound 3.16 µM) 0.23% | viability, T/C (second compound 3.16 µM, first compound 10 µM) 0.67% | viability, T/C (second compound 10 µM, first compound 0.0316 µM) 0.38% | viability, T/C (second compound 10 µM, first compound 0.1 µM) 0.42% | viability, T/C (second compound 10 µM, first compound 0.316 µM) 0.33% | viability, T/C (second compound 10 µM, first compound 1 µM) 0.37% | viability, T/C (second compound 10 µM, first compound 3.16 µM) 0.37% | viability, T/C (second compound 10 µM, first compound 10 µM) 0.26%
> 10 µM: IC50 (second compound 0.0316 µM) | IC50 (second compound 0.1 µM)
< 0.0316 µM: IC50 (second compound 0.316 µM) | IC50 (second compound 1 µM) | IC50 (second compound 3.16 µM) | IC50 (second compound 10 µM)

C=CC(=O)Nc1cc(Nc2nccc(-c3cn(C)c4ccccc34)n2)c(OC)cc1N(C)CCN(C)C + CN1CCN(c2cc(C(=O)Nc3cc4cc(-c5cnn(C)c5)ccc4cn3)ccn2)CC1
active: viability, T/C (second compound 0.316 µM, first compound 0.000949 µM) 4.91% | viability, T/C (second compound 0.316 µM, first compound 0.003 µM) 4.6% | viability, T/C (second compound 0.316 µM, first compound 0.00949 µM) 2.55% | viability, T/C (second compound 0.316 µM, first compound 0.03 µM) 3.23% | viability, T/C (second compound 0.316 µM, first compound 0.0949 µM) 2.33% | viability, T/C (second compound 0.316 µM, first compound 0.3 µM) 3.21% | viability, T/C (second compound 1 µM, first compound 0.000949 µM) 0.14% | viability, T/C (second compound 1 µM, first compound 0.003 µM) 0.99% | viability, T/C (second compound 1 µM, first compound 0.00949 µM) 0.15% | viability, T/C (second compound 1 µM, first compound 0.03 µM) 0.13% | viability, T/C (second compound 1 µM, first compound 0.0949 µM) 0.11% | viability, T/C (second compound 1 µM, first compound 0.3 µM) 0.14% | viability, T/C (second compound 3.16 µM, first compound 0.000949 µM) 0.4% | viability, T/C (second compound 3.16 µM, first compound 0.003 µM) 1.42% | viability, T/C (second compound 3.16 µM, first compound 0.00949 µM) 1.1% | viability, T/C (second compound 3.16 µM, first compound 0.03 µM) 0.23% | viability, T/C (second compound 3.16 µM, first compound 0.0949 µM) 2.07% | viability, T/C (second compound 3.16 µM, first compound 0.3 µM) 1.52% | viability, T/C (second compound 10 µM, first compound 0.000949 µM) 0.82% | viability, T/C (second compound 10 µM, first compound 0.003 µM) 0.35% | viability, T/C (second compound 10 µM, first compound 0.00949 µM) 1% | viability, T/C (second compound 10 µM, first compound 0.03 µM) 1.25% | viability, T/C (second compound 10 µM, first compound 0.0949 µM) 0.32% | viability, T/C (second compound 10 µM, first compound 0.3 µM) 0.26%
> 0.3 µM: IC50 (second compound 0.0316 µM) | IC50 (second compound 0.1 µM)
inactive: viability, T/C (second compound 0.0316 µM, first compound 0.000949 µM) 102% | viability, T/C (second compound 0.0316 µM, first compound 0.003 µM) 111% | viability, T/C (second compound 0.0316 µM, first compound 0.00949 µM) 100% | viability, T/C (second compound 0.0316 µM, first compound 0.03 µM) 81.4% | viability, T/C (second compound 0.0316 µM, first compound 0.0949 µM) 116% | viability, T/C (second compound 0.0316 µM, first compound 0.3 µM) 137% | viability, T/C (second compound 0.1 µM, first compound 0.000949 µM) 157% | viability, T/C (second compound 0.1 µM, first compound 0.003 µM) 163% | viability, T/C (second compound 0.1 µM, first compound 0.00949 µM) 152% | viability, T/C (second compound 0.1 µM, first compound 0.03 µM) 179% | viability, T/C (second compound 0.1 µM, first compound 0.0949 µM) 120% | viability, T/C (second compound 0.1 µM, first compound 0.3 µM) 106%
< 0.000949 µM: IC50 (second compound 0.316 µM) | IC50 (second compound 1 µM) | IC50 (second compound 3.16 µM) | IC50 (second compound 10 µM)
